US8916551B2, “Heterocyclic compound and use thereof” (Takeda Pharmaceutical Company Limited, priority 2010, dated 2014)

What follows are compounds tested against T1, AMPA receptor (human GluR1 flip/stargazin expressed in CHO-K1 cells) (Homo sapiens, UniProt P42261) (assay: AMPA receptor function enhancing activity using calcium influx as index). Conditions: test compound 30 μM with 3 mM glutamic acid, change in fluorescence level in 3 min, 100% = 3 mM glutamic acid + 300 μM cyclothiazide, 0% = 3 mM glutamic acid only.
T1 construct: expressed in transfected cells; host or cells: CHO-K1
T1 sequence (P42261 19-906 isoform P42261-2 limits assumed): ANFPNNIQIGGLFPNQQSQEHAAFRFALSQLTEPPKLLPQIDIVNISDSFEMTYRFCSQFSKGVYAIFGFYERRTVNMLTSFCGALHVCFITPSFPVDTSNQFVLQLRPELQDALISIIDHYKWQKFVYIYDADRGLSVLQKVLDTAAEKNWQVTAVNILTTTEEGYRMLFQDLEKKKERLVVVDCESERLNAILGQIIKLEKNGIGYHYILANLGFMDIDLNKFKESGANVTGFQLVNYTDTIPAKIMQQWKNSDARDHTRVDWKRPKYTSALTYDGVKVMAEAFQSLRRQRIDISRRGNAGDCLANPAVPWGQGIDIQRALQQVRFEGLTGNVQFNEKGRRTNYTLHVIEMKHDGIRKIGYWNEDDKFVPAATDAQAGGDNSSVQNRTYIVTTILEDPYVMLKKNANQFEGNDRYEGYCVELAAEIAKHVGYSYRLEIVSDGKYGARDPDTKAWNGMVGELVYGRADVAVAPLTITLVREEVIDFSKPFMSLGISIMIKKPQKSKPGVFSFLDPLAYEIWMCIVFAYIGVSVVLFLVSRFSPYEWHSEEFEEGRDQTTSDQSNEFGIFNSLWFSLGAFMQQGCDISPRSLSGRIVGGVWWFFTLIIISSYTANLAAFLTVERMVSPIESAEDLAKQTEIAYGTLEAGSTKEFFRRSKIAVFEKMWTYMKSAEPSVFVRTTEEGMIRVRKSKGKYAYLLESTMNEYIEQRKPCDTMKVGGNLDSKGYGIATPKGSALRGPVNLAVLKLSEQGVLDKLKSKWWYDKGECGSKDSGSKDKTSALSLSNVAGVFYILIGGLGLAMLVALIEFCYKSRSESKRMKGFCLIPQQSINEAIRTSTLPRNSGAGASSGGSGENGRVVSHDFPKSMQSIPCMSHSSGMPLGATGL
T1 sequence (Q9Y698 whole entry partner): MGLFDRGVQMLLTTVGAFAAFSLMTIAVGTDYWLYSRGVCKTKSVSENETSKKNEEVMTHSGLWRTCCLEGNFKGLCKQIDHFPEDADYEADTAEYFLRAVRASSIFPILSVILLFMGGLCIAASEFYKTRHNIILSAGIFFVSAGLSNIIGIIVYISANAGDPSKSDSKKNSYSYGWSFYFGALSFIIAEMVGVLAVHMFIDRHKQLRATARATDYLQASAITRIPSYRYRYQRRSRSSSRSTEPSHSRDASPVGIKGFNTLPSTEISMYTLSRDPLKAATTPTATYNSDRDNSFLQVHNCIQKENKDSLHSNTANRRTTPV
Type: cell-based
Method in brief: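 CHO-K1 clone stably co-expressing human GluR1 flip and stargazin, loaded with Calcium 4 dye plus probenecid. Compound at 30 μM was added with glutamate (3 mM final) and fluorescence change followed over 3 min. Activity is expressed as % of the 3 mM glutamate plus 300 μM cyclothiazide response, with glutamate alone as 0%.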
For `CC1=CN2CCS(=O)(=O)N=C2C(c2ccc(OC3CCCCC3)cc2)=N1` [Example 180, 9-[4-(cyclohexyloxy)phenyl]-7-methyl-3,4-dihydropyrazino[2,1-c][1,2,4]thiadiazine 2,2-dioxide], the “activity (%)” value was 70%.
In the case of `O=S1(=O)CCN2C=CC=C(C3CCC(c4ccccc4)CC3)C2=N1` (stereo not shown) [Example 185, 9-(4-phenylcyclohexyl)-3,4-dihydropyrido[2,1-c][1,2,4]thiadiazine 2,2-dioxide], the “activity (%)” value is reported as 36%.
For `O=S1(=O)CCN2C=CC=C(c3ccc(Oc4cccc(C(F)(F)F)c4)cc3)C2=N1` [Example 187, 9-{4-[3-(trifluoromethyl)phenoxy]phenyl}-3,4-dihydropyrido[2,1-c][1,2,4]thiadiazine 2,2-dioxide], the “activity (%)” value was 72%.
With `O=S1(=O)CCN2CCC[C@@H](c3ccc(Oc4cccc(Cl)c4)cc3)C2=N1` [Example 203, (9S)-9-[4-(3-chlorophenoxy)phenyl]-3,4,6,7,8,9-hexahydropyrido[2,1-c][1,2,4]thiadiazine 2,2-dioxide] the “activity (%)” value was 85%.
With `O=S1(=O)CCN2C=CN=C(c3ccc(Oc4ccccc4)cc3)C2=N1` [Example 210, 9-(4-phenoxyphenyl)-3,4-dihydropyrazino[2,1-c][1,2,4]thiadiazine 2,2-dioxide] the “activity (%)” value was 82%.
For `O=S1(=O)CCN2CCNC(c3ccc(Oc4ccccc4)cc3)C2=N1` (stereo not shown) [Example 211, 9-(4-phenoxyphenyl)-3,4,6,7,8,9-hexahydropyrazino[2,1-c][1,2,4]thiadiazine 2,2-dioxide], the “activity (%)” value was 71%.
For `Cc1cc(Cl)ccc1Oc1ccc([C@@H]2CCCN3CCS(=O)(=O)N=C23)cc1` [Example 215, (9S)-9-[4-(4-chloro-2-methylphenoxy)phenyl]-3,4,6,7,8,9-hexahydropyrido[2,1-c][1,2,4]thiadiazine 2,2-dioxide], the “activity (%)” value was 67%.
`O=S1(=O)CCN2CCC[C@@H](c3ccc(-c4ccccc4Cl)cc3)C2=N1` [Example 220, (9S)-9-(2′-chlorobiphenyl-4-yl)-3,4,6,7,8,9-hexahydropyrido[2,1-c][1,2,4]thiadiazine 2,2-dioxide] was tested, and the “activity (%)” value was 93%.
For `O=S1(=O)CCN2CCCC(c3ccc(-c4ccccc4Cl)cc3)C2=N1` (stereo not shown) [Example 221, 9-(2′-chlorobiphenyl-4-yl)-3,4,6,7,8,9-hexahydropyrido[2,1-c][1,2,4]thiadiazine 2,2-dioxide], the “activity (%)” value was 96%.
With `O=S1(=O)CCN2CCC[C@@H](c3ccc(-c4ccc(F)c(Cl)c4)cc3)C2=N1` [Example 226, (9S)-9-(3′-chloro-4′-fluorobiphenyl-4-yl)-3,4,6,7,8,9-hexahydropyrido[2,1-c][1,2,4]thiadiazine 2,2-dioxide] the “activity (%)” value was 79%.
`O=S1(=O)CCN2CCC[C@@H](c3ccc(Oc4ccc(Br)cc4)cc3)C2=N1` [Example 228, (9S)-9-[4-(4-bromophenoxy)phenyl]-3,4,6,7,8,9-hexahydropyrido[2,1-c][1,2,4]thiadiazine 2,2-dioxide] was tested, and the “activity (%)” value was 78%.
`CC(F)(F)c1ccc(C2CCCN3CCS(=O)(=O)N=C23)cc1` (stereo not shown) [Example 230, 9-[4-(1,1-difluoroethyl)phenyl]-3,4,6,7,8,9-hexahydropyrido[2,1-c][1,2,4]thiadiazine 2,2-dioxide] was tested, and the “activity (%)” value was 59%.
In the case of `CC(F)(F)c1ccc(C2CCCN3CCS(=O)(=O)N=C23)cc1` (stereo not shown) [Example 231, 9-[4-(1,1-difluoroethyl)phenyl]-3,4,6,7,8,9-hexahydropyrido[2,1-c][1,2,4]thiadiazine 2,2-dioxide], the “activity (%)” value is reported as 78%.
`CC(F)(F)c1ccc(Oc2ccc(C3CCCN4CCS(=O)(=O)N=C34)cc2)cc1` (stereo not shown) [Example 235, 9-{4-[4-(1,1-difluoroethyl)phenoxy]phenyl}-3,4,6,7,8,9-hexahydropyrido[2,1-c][1,2,4]thiadiazine 2,2-dioxide] was tested, and the “activity (%)” value was 84%.
In the case of `O=S1(=O)CCN2C=CC=C(Oc3ccc4c(c3)CCCC4)C2=N1` [Example 237, 9-(5,6,7,8-tetrahydronaphthalen-2-yloxy)-3,4-dihydropyrido[2,1-c][1,2,4]thiadiazine 2,2-dioxide], the “activity (%)” value is reported as 66%.
With `O=S1(=O)CCN2CCCC(Oc3ccc4c(c3)CCCC4)C2=N1` (stereo not shown) [Example 238, 9-(5,6,7,8-tetrahydronaphthalen-2-yloxy)-3,4,6,7,8,9-hexahydropyrido[2,1-c][1,2,4]thiadiazine 2,2-dioxide] the “activity (%)” value was 87%.
With `O=S1(=O)CCN2C=CC=C(c3ccc(-n4cccn4)cc3)C2=N1` [Example 239, 9-[4-(1H-pyrazol-1-yl)phenyl]-3,4-dihydropyrido[2,1-c][1,2,4]thiadiazine 2,2-dioxide] the “activity (%)” value was 88%.
In the case of `O=C1CCC(Oc2ccc(C3=CC=CN4CCS(=O)(=O)N=C34)cc2)CC1` [Example 244, 4-[4-(2,2-dioxido-3,4-dihydropyrido[2,1-c][1,2,4]thiadiazin-9-yl)phenoxy]cyclohexanone], the “activity (%)” value is reported as 76%.
With `Cc1cccc(Oc2ccc(C3=CC=CN4CCS(=O)(=O)N=C34)cc2)n1` [Example 246, 9-{4-[(6-methylpyridin-2-yl)oxy]phenyl}-3,4-dihydropyrido[2,1-c][1,2,4]thiadiazine 2,2-dioxide] the “activity (%)” value was 73%.
In the case of `O=S1(=O)CCN2C=C(Cl)C=C(c3ccc(OCC4CCCO4)cc3)C2=N1` (stereo not shown) [Example 251, 7-chloro-9-[4-(tetrahydrofuran-2-ylmethoxy)phenyl]-3,4-dihydropyrido[2,1-c][1,2,4]thiadiazine 2,2-dioxide], the “activity (%)” value is reported as 81%.
For `O=S1(=O)CCN2C=C(Cl)C=C(c3ccc(OCC4CCOCC4)cc3)C2=N1` [Example 253, 7-chloro-9-[4-(tetrahydro-2H-pyran-4-ylmethoxy)phenyl]-3,4-dihydropyrido[2,1-c][1,2,4]thiadiazine 2,2-dioxide], the “activity (%)” value was 80%.
`O=S1(=O)CCN2C=CC=C(c3ccc(Oc4ccc(C(F)(F)F)nc4)cc3)C2=N1` [Example 254, 9-(4-{[6-(trifluoromethyl)pyridin-3-yl]oxy}phenyl)-3,4-dihydropyrido[2,1-c][1,2,4]thiadiazine 2,2-dioxide] was tested, and the “activity (%)” value was 81%.
With `O=S1(=O)CCN2C=CC=C(c3ccc(Oc4cnccc4C(F)(F)F)cc3)C2=N1` [Example 255, 9-(4-{[4-(trifluoromethyl)pyridin-3-yl]oxy}phenyl)-3,4-dihydropyrido[2,1-c][1,2,4]thiadiazine 2,2-dioxide] the “activity (%)” value was 84%.
`O=S1(=O)CCN2C=C(Cl)C=C(c3ccc(Oc4ccc(C(F)(F)F)nc4)cc3)C2=N1` [Example 256, 7-chloro-9-(4-{[6-(trifluoromethyl)pyridin-3-yl]oxy}phenyl)-3,4-dihydropyrido[2,1-c][1,2,4]thiadiazine 2,2-dioxide] was tested, and the “activity (%)” value was 86%.
With `O=S1(=O)CCN2C=CC=C(c3ccc(Oc4ccnc(C(F)(F)F)c4)cc3)C2=N1` [Example 257, 9-(4-{[2-(trifluoromethyl)pyridin-4-yl]oxy}phenyl)-3,4-dihydropyrido[2,1-c][1,2,4]thiadiazine 2,2-dioxide] the “activity (%)” value was 84%.
With `O=S1(=O)CCN2C=CC=C(c3ccc(Oc4ccccc4)cn3)C2=N1` [Example 258, 9-(5-phenoxypyridin-2-yl)-3,4-dihydropyrido[2,1-c][1,2,4]thiadiazine 2,2-dioxide] the “activity (%)” value was 79%.
For `O=S1(=O)CCN2C=CC=C(c3ccc(Oc4cncc(C(F)(F)F)c4)cc3)C2=N1` [Example 259, 9-(4-{[5-(trifluoromethyl)pyridin-3-yl]oxy}phenyl)-3,4-dihydropyrido[2,1-c][1,2,4]thiadiazine 2,2-dioxide], the “activity (%)” value was 90%.
For `O=S1(=O)CCN2C=C(Cl)C=C(c3ccc(Oc4cncc(C(F)(F)F)c4)cc3)C2=N1` [Example 260, 7-chloro-9-(4-{[5-(trifluoromethyl)pyridin-3-yl]oxy}phenyl)-3,4-dihydropyrido[2,1-c][1,2,4]thiadiazine 2,2-dioxide], the “activity (%)” value was 91%.
With `O=S1(=O)CCN2CCCC(c3ccc(OC4CCCCC4)cc3)C2=N1` (stereo not shown) [Example 261, 9-[4-(cyclohexyloxy)phenyl]-3,4,6,7,8,9-hexahydropyrido[2,1-c][1,2,4]thiadiazine 2,2-dioxide] the “activity (%)” value was 72%.
`O=S1(=O)CCN2C=CC=C(c3ccc(OCC(F)(F)F)cc3)C2=N1` [Example 264, 9-[4-(2,2,2-trifluoroethoxy)phenyl]-3,4-dihydropyrido[2,1-c][1,2,4]thiadiazine 2,2-dioxide] was tested, and the “activity (%)” value was 80%.
`O=S1(=O)CCN2C=CC=C(c3ccc(Oc4ccccc4C(F)(F)F)cc3)C2=N1` [Example 266, 9-{4-[2-(trifluoromethyl)phenoxy]phenyl}-3,4-dihydropyrido[2,1-c][1,2,4]thiadiazine 2,2-dioxide] was tested, and the “activity (%)” value was 84%.
With `O=C1CCCCC1Oc1ccc(C2=CC=CN3CCS(=O)(=O)N=C23)cc1` (stereo not shown) [Example 274, 2-[4-(2,2-dioxido-3,4-dihydropyrido[2,1-c][1,2,4]thiadiazin-9-yl)phenoxy]cyclohexanone] the “activity (%)” value was 85%.
`O=S1(=O)CCN2C=CC=C(c3ccc(-c4ccccc4)nc3)C2=N1` [Example 282, 9-(6-phenylpyridin-3-yl)-3,4-dihydropyrido[2,1-c][1,2,4]thiadiazine 2,2-dioxide] was tested, and the “activity (%)” value was 84%.
With `CC1(C)Cc2cc(C3=CC=CN4CCS(=O)(=O)N=C34)ccc2C1=O` [Example 287, 5-(2,2-dioxido-3,4-dihydropyrido[2,1-c][1,2,4]thiadiazin-9-yl)-2,2-dimethyl-2,3-dihydro-1H-inden-1-one] the “activity (%)” value was 73%.
